{
  "source": "patent US9636299B2",
  "about": "“Method for treating diabetic retinopathy” (XAVIER UNIVERSITY OF LOUISIANA, priority 2012, dated 2017)",
  "key": {"[1]": {"experiment": "Corneal permeability of topical 1% apoEdp eye drops in mice, UPLC-MS of pooled aqueous and vitreous humor", "format": "in vivo", "parameters": "key to Meas'd conc. / Total: *: No peak detected", "protocol": "The apoEdp peptide (SEQ ID NO:3) is rich in cationic amino acids, and the inventor postulated that it may cross the cornea into the anterior and posterior chambers of the eye. […] Thus, apoEdp can be used for non-invasive treatment of posterior eye diseases.\nA one percent (1%) solution comprising apoEdp in PBS was prepared. This solution was applied bilaterally via eyedropper to the eyes of mice (n=4). The mice were sacrificed at 0, 1, 2, or 3 hours after application of the solution, and the eyes were enucleated. The aqueous and vitreous humor from each eye was collected and pooled, mixed with 1 mL of 0.1% formic acid solution, and allowed to stand for 5 minutes. The samples were then filtered with a 0.2 μm filter and analyzed with the Acquity UPLC system (Waters Corp., Milford, Mass.) with mass spectrophotometric detection.\nInitially, the mass range for the peptide was scanned several peaks corresponding to different charged states of the peptide were found. These peaks included 484.9 m/z, 604.4 m/z, and 805.6 m/z. The 484.9 peak was used for the analysis because it was the strongest peak. For the UPLC analysis, a 2.1 mm×100 mm×1.7 μm BEH300 C4 column was used. A two-component mobile phase was used with component 1 (C1): 0.1% formic Acid, and Component 2 (C2): Acetonitrile with 0.1% formic acid. The flow rate was 0.2 mL/min and gradient elution was used with a linear gradient (see TABLE 2). Retention time for the peptide was 4.6 minutes."}, "[2]": {"tested_on": "LRP-1", "experiment": "LRP-1 expression in high sugar induced hRMECs (Western blot)", "format": "cell-based, human", "details": "high sugar induced serum starved hRMECs, 1% apoEdp, 24 hours", "protocol": "Using an anti-LRP-1 antibody (human LRP-1; 1:1000, Santa Cruz Biotechnology, CA) and Western blot analysis, selective inhibition of LRP-1 by apoEdp treatment (24 hours) in serum starved hRMECs cells was shown."}, "[3]": {"tested_on": "LRP-1", "experiment": "Streptozotocin-induced diabetic mice, retinal LRP-1 protein", "format": "in vivo, mouse", "protocol": "Streptozotocin (STZ) induced diabetes. Twelve week old C57Bl/6 mice were used for this study. Mice were induced to have diabetes by intraperitoneal injection of 170 μg/g of streptozotocin (Sigma Aldrich, St. Louis, Mo.). Controls were injected with a vehicle (0.01M sodium citrate buffer). On the third day after STZ treatment, mice tail veins were bled to test the hyperglycemic status using blood sugar detection kit (Lifescan; Johnson & Johnson, Milpitas, Calif.). Mice with blood sugar levels of >300 mg/dL on the third day after STZ treatment were considered diabetic. Eye drop treatment containing 1% apoEdp or vehicle PBS was continued 4 times a day for 14 consecutive days. Intra-peritoneal (i/p) injection containing 40 mg/kg of apoEdp or vehicle control PBS was administered once daily for 14 consecutive days. On the 15th day post-treatment, mice were euthanized, their eyes enucleated, and the retinas dissected out to use for mRNA or Western blot analysis."}, "[4]": {"tested_on": "occludin", "experiment": "Streptozotocin-induced diabetic mice, retinal occludin mRNA by real-time RT-PCR", "format": "in vivo, mouse", "details": "14 days, vs diabetic non-treated", "protocol": "RNA Extraction, Reverse Transcription, & PCR. Following euthanasia, mouse eyes were enucleated and placed immediately into RNAlater® RNA stabilization reagent (Qiagen, Hilden, Germany). Intraocular fluids were aspirated and pooled, and total cellular RNA was isolated using an RNeasy® Mini Kit (Qiagen) according to the manufacturer's instructions. Gene expression was measured at RNA level per 100 ng of total RNA using one-step RT-PCR kit (Bio-Rad, Hercules, Calif.). Four host genes (mouse GAPDH, mouse MMP2, mouse HPSE-1 (heparanase-1), and mouse MMP9) were analyzed to confirm relative quantitative expression levels. The primer pairs used were specifically designed and synthesized by Qiagen GmbH, Hilden, Germany (Quantitech Primer assay kit, for each host gene, catalog numbers QT01658692, QT00088396, QT00009555, and QT00040040, respectively). One-step Real-time quantitative RT-PCR reactions were performed in a 50-μL volume containing a solution of 1× supermix (iQ SYBR Green; Bio-Rad, Hercules, Calif.), 1 μM mix of forward and reverse primers, and 5 μL total RNA. A four-step protocol was used: denaturation, 3 minutes at 95° C.; amplification and quantification, 40 cycles of 15 seconds at 95° C. followed by 30 seconds at 60° C.; melting curve, 60 to 95° C. with a heating rate of 0.5° C. per second; followed by cooling (MyiQ Single Color Real-Time PCR Detection System; Bio-Rad). […]"}, "[5]": {"details": "OD (right eye), 0 h after topical 1% apoEdp"}, "[6]": {"details": "OD (right eye), 1 h after topical 1% apoEdp"}, "[7]": {"details": "OD (right eye), 2 h after topical 1% apoEdp"}, "[8]": {"details": "OD (right eye), 3 h after topical 1% apoEdp"}, "[9]": {"details": "OS (left eye), 1 h after topical 1% apoEdp"}, "[10]": {"details": "OS (left eye), 2 h after topical 1% apoEdp"}, "[11]": {"details": "OS (left eye), 3 h after topical 1% apoEdp"}},
  "note": "Residues, ends and D or L forms follow the SMILES beside them.",
  "data": [
    {"smiles": "CC(=O)N[C@@H](CC(C)C)C(=O)N[C@@H](CCCNC(=N)N)C(=O)N[C@@H](CCCCN)C(=O)N[C@@H](CC(C)C)C(=O)N[C@@H](CCCNC(=N)N)C(=O)N[C@@H](CCCCN)C(=O)N[C@@H](CCCNC(=N)N)C(=O)N[C@@H](CC(C)C)C(=O)N[C@@H](CC(C)C)C(=O)N[C@@H](CC(C)C)C(=O)N[C@@H](CCCNC(=N)N)C(=O)N[C@@H](CCCCN)C(=O)N[C@@H](CC(C)C)C(=O)N[C@@H](CCCNC(=N)N)C(=O)N[C@@H](CCCCN)C(=O)N[C@@H](CCCNC(=N)N)C(=O)N[C@@H](CC(C)C)C(=O)N[C@@H](CC(C)C)C(N)=O", "note": "[apoEdp, Ac-LRKLRKRLLLRKLRKRLL-amide] (Ac-LRKLRKRLLLRKLRKRLL-NH2)", "values": [
      {"measurement": "Meas'd conc.", "setting": "[1]; [5]", "value": "*"},
      {"measurement": "Total", "setting": "[1]; [5]", "value": "*"},
      {"measurement": "Meas'd conc.", "setting": "[1]; [6]", "value": 0.022, "unit": "µg/mL"},
      {"measurement": "Total", "setting": "[1]; [6]", "value": 22.2, "unit": "ng"},
      {"measurement": "Meas'd conc.", "setting": "[1]; [7]", "value": 0.006, "unit": "µg/mL"},
      {"measurement": "Total", "setting": "[1]; [7]", "value": 5.9, "unit": "ng"},
      {"measurement": "Meas'd conc.", "setting": "[1]; [8]", "value": 0.036, "unit": "µg/mL"},
      {"measurement": "Total", "setting": "[1]; [8]", "value": 36.3, "unit": "ng"},
      {"measurement": "Total", "setting": "[1]; OS (left eye), 0 h after topical 1% apoEdp", "value": "*"},
      {"measurement": "Meas'd conc.", "setting": "[1]; OS (left eye), 0 h after topical 1% apoEdp in PBS, pooled aqueous and vitreous humor", "value": "*"},
      {"measurement": "Meas'd conc.", "setting": "[1]; [9]", "value": "*"},
      {"measurement": "Total", "setting": "[1]; [9]", "value": "*"},
      {"measurement": "Meas'd conc.", "setting": "[1]; [10]", "value": 0.004, "unit": "µg/mL"},
      {"measurement": "Total", "setting": "[1]; [10]", "value": 3.89, "unit": "ng"},
      {"measurement": "Meas'd conc.", "setting": "[1]; [11]", "value": 0.058, "unit": "µg/mL"},
      {"measurement": "Total", "setting": "[1]; [11]", "value": 58.08, "unit": "ng"},
      {"measurement": "Detection of topically-applied apoEdp inside the eye (cornea penetration)", "setting": "[1]; topical 1% apoEdp", "value": "detected inside the eye in as little as one hour after application"},
      {"measurement": "Upregulation of LRP-1", "setting": "[2]", "value": "inhibiting the upregulation"},
      {"measurement": "Retinal LRP-1 protein levels", "setting": "[3]; 1% apoEdp via eye drops", "value": "significant reduction"},
      {"measurement": "Retinal LRP-1 protein levels", "setting": "[3]; 1% apoEdp via intraperitoneal (i/p) injection", "value": "significant reduction"},
      {"measurement": "Down-regulation of occludin-specific mRNA in retina", "setting": "[4]; 1% apoEdp eye drop 4 times a day", "value": "significantly inhibited the down-regulation"},
      {"measurement": "Down-regulation of occludin-specific mRNA in retina", "setting": "[4]; i/p injection 40 mg/kg daily", "value": "significantly inhibited the down-regulation"}
    ]}
  ]
}
